From patent US10494355B2, “Oxadiazole amine derivative compounds as histone deacetylase 6 inhibitor, and the pharmaceutical composition comprising the same” (Chong Kun Dang Pharmaceutical Corp., priority 2015, dated 2019) come the findings set out here.

What is called IC50 is the concentration that inhibits the measured activity by half.

In one assay the target is T1, human recombinant HDAC6 (Homo sapiens, UniProt Q9UBN7).
T1 construct: purchased Calbiochem 382180
T1 sequence (Q9UBN7 1-1215): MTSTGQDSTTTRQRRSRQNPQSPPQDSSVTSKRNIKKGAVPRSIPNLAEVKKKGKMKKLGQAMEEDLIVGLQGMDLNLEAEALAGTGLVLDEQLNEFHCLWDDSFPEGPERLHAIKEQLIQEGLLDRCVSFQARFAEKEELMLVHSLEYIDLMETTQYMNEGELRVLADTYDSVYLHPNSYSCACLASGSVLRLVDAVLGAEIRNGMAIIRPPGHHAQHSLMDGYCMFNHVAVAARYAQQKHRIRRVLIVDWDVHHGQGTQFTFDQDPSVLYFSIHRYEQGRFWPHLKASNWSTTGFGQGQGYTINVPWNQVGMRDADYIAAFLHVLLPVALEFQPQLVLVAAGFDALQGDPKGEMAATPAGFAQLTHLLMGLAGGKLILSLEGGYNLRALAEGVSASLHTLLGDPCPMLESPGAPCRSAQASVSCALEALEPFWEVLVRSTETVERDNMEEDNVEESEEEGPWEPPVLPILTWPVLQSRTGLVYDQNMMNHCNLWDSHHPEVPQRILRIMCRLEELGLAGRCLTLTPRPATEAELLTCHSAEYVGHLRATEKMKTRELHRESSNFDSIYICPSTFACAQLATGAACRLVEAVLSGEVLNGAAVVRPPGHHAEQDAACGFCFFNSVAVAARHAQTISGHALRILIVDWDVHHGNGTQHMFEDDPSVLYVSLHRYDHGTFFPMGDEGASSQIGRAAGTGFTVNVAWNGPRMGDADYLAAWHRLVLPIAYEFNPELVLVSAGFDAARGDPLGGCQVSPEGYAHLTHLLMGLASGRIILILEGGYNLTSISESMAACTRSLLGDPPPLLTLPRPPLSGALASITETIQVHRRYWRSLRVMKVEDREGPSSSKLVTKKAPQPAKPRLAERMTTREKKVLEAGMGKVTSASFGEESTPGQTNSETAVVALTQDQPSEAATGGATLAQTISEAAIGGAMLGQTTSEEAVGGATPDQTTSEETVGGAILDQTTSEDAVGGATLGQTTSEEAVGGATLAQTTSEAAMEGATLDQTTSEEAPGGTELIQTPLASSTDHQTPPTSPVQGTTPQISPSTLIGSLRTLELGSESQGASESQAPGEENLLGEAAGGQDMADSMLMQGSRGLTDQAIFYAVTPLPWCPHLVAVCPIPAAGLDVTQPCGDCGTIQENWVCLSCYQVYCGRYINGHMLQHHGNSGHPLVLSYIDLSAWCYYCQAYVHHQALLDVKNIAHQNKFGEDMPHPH
The assay is described as follows: HDAC6 enzyme activity inhibition assay (HDAC Fluorimetric Drug Discovery Kit). The format is biochemical. Particulars: 30° C. 60 minutes. The procedure: (§1) In order to examine the HDAC6 selectivity of the compounds of formula I of the present invention by HDAC1 and HDAC6 enzymatic activity inhibition assays, an experiment was performed using a conventional substance as a control.
(§2) HDAC enzyme activity was measured using a HDAC Fluorimetric Drug Discovery Kit (BML-AK511, 516, Enzo Life Science). For the HDAC1 enzyme activity test, human recombinant HDAC1 (BML-SE456) was used as an enzyme source, and Fluor de Lys®-“SIRT1 (BNL-KI177) was used as a substrate. A 5-fold dilution of the compound was seeded into a 96-well plate, and then 0.3 μg of the enzyme and 10 μM of the substrate were added to each well of the plate and allowed to react at 30° C. for 60 minutes. Then, Fluor de Lys®-Developer II (BML-KI176) was added thereto and allowed to react for 30 minutes, after which the fluorescence value (Ex 360, Em 460) was measured using a multi-plate reader (Flexstation 3, Molecular Device). The HDAC6 enzyme was tested using human recombinant HDAC6 (382180) (Calbiochem) according to the same protocol as the HDAC1 enzyme activity test method. Based on the resulting values, each IC50 value was calculated using GraphPad Prism4.0 program.

A further assay concerns the target T2, human recombinant HDAC1 (Homo sapiens, UniProt Q13547).
T2 construct: purchased Enzo Life Science BML-SE456
Kind of assay: HDAC1 enzyme activity inhibition assay (HDAC Fluorimetric Drug Discovery Kit). The format is biochemical. Conditions: human recombinant HDAC1, 10 μM substrate, 30° C. 60 minutes. The procedure:
as §1, §2

T2 sequence (Q13547 whole entry): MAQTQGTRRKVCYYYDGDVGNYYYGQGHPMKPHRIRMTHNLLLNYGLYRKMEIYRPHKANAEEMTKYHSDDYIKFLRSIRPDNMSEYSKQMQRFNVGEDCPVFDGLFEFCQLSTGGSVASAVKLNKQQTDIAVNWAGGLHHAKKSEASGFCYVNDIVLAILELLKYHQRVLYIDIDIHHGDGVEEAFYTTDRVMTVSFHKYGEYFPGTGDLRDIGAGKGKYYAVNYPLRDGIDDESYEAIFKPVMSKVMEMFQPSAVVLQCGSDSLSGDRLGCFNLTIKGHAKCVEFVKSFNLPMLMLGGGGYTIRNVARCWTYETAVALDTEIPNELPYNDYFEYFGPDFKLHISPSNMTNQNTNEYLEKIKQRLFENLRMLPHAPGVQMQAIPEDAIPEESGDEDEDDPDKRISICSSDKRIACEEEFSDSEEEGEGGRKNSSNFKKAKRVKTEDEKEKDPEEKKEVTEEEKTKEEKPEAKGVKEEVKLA

Regarding `Fc1c(Cl)cccc1C1(Nc2ncc(-c3nnc(C(F)(F)F)o3)cn2)CCC1` [Compound 1966, N-(1-(3-chloro-2-fluorophenyl)cyclobutyl)-5-(5-(trifluoromethyl)-1,3,4-oxadiazol-2-yl)pyrimidin-2-amine], the IC50 at human recombinant HDAC6 is 1470 nM; at human recombinant HDAC1, over 10 µM.
The like results for `FC(F)(F)c1nnc(-c2cnc(NC3(c4ccc(Cl)c(Cl)c4)CCC3)nc2)o1` [Compound 1835, N-(1-(3,4-dichlorophenyl)cyclobutyl)-5-(5-(trifluoromethyl)-1,3,4-oxadiazol-2-yl)pyrimidin-2-amine] were, in that order, 1960 nM and over 10 µM.
The like results for `Fc1ccc(C2(Nc3ncc(-c4nnc(C(F)(F)F)o4)cn3)CCC2)c(Cl)c1` [Compound 1960, N-(1-(2-chloro-4-fluorophenyl)cyclobutyl)-5-(5-(trifluoromethyl)-1,3,4-oxadiazol-2-yl)pyrimidin-2-amine] were, in that order, 1230 nM and over 10 µM.
Take `COc1cccc(C2(Nc3ncc(-c4nnc(C(F)F)o4)cn3)CC2)c1` [Compound 2048, 5-(5-(difluoromethyl)-1,3,4-oxadiazol-2-yl)-N-(1-(3-methoxyphenyl)cyclopropyl)pyrimidin-2-amine]: the IC50 on human recombinant HDAC6 was 63 nM; on human recombinant HDAC1 it was over 10 µM.
For `Fc1cccc(F)c1C1(Nc2ncc(-c3nnc(C(F)F)o3)cn2)CCC1` [Compound 1828, 5-(5-(difluoromethyl)-1,3,4-oxadiazol-2-yl)-N-(1-(2,6-difluorophenyl)cyclobutyl)pyrimidin-2-amine], the IC50 is 39 nM on human recombinant HDAC6 and over 10 µM at human recombinant HDAC1.
Consider `Fc1ccc(C2(Nc3ncc(-c4nnc(C(F)F)o4)cn3)CCC2)cc1F` [Compound 2045, 5-(5-(difluoromethyl)-1,3,4-oxadiazol-2-yl)-N-(1-(3,4-difluorophenyl)cyclobutyl)pyrimidin-2-amine], for which the IC50 on human recombinant HDAC6 is 61 nM; at human recombinant HDAC1, over 10 µM.
The like results for `FC(F)c1nnc(-c2cnc(NC3(c4ccc5c(c4)OCO5)CCC3)nc2)o1` [Compound 1820, N-(1-(benzo[d][1,3]dioxol-5-yl)cyclobutyl)-5-(5-(difluoromethyl)-1,3,4-oxadiazol-2-yl)pyrimidin-2-amine] were, in that order, 83 nM and over 10 µM.
In the case of `FC(F)(F)c1nnc(-c2cnc(NC3(c4ccccc4)CCCCC3)nc2)o1` [Compound 1582, N-(1-phenylcyclohexyl)-5-(5-(trifluoromethyl)-1,3,4-oxadiazol-2-yl)pyrimidin-2-amine], the IC50 was 1250 nM on human recombinant HDAC6 and over 10 µM at human recombinant HDAC1.
The like results for `Fc1cccc(C2(Nc3ncc(-c4nnc(C(F)(F)F)o4)cn3)CCC2)c1` [Compound 1608, N-(1-(3-fluorophenyl)cyclobutyl)-5-(5-(trifluoromethyl)-1,3,4-oxadiazol-2-yl)pyrimidin-2-amine] were, in that order, 154 nM and over 10 µM.
The like results for `Fc1ccc(C2(Nc3ncc(-c4nnc(C(F)F)o4)cn3)CCC2)c(Cl)c1` [Compound 1959, N-(1-(2-chloro-4-fluorophenyl)cyclobutyl)-5-(5-(difluoromethyl)-1,3,4-oxadiazol-2-yl)pyrimidin-2-amine] were, in that order, 163 nM and over 10 µM.
The like results for `Fc1ccccc1C1(Nc2ncc(-c3nnc(C(F)F)o3)cn2)CCC1` [Compound 1609, 5-(5-(difluoromethyl)-1,3,4-oxadiazol-2-yl)-N-(1-(2-fluorophenyl)cyclobutyl)pyrimidin-2-amine] were, in that order, 23 nM and over 10 µM.
As to `Fc1cc(F)cc(C2(Nc3ncc(-c4nnc(C(F)F)o4)cn3)CC2)c1` [Compound 2057, 5-(5-(difluoromethyl)-1,3,4-oxadiazol-2-yl)-N-(1-(3,5-difluorophenyl)cyclopropyl)pyrimidin-2-amine], the values for the IC50 at human recombinant HDAC6 and on human recombinant HDAC1 were 33 nM and over 10 µM, respectively.
The like results for `FC(F)c1nnc(-c2cnc(NC3(c4ccc(Cl)cc4)CCC3)nc2)o1` [Compound 1616, N-(1-(4-chlorophenyl)cyclobutyl)-5-(5-(difluoromethyl)-1,3,4-oxadiazol-2-yl)pyrimidin-2-amine] were, in that order, 44 nM and over 10 µM.
The like results for `COc1ccc(C2(Nc3ncc(-c4nnc(C(F)(F)F)o4)cn3)CCC2)cc1` [Compound 1604, N-(1-(4-methoxyphenyl)cyclobutyl)-5-(5-(trifluoromethyl)-1,3,4-oxadiazol-2-yl)pyrimidin-2-amine] were, in that order, 204 nM and over 10 µM.
The like results for `FC(F)c1nnc(-c2cnc(NC3(c4cccc(Cl)c4Cl)CCC3)nc2)o1` [Compound 1832, N-(1-(2,3-dichlorophenyl)cyclobutyl)-5-(5-(difluoromethyl)-1,3,4-oxadiazol-2-yl)pyrimidin-2-amine] were, in that order, 100 nM and over 10 µM.
For the compound `Fc1ccc(C2(Nc3ncc(-c4nnc(C(F)F)o4)cn3)CC2)cc1Cl` [Compound 1722, N-(1-(3-chloro-4-fluorophenyl)cyclopropyl)-5-(5-(difluoromethyl)-1,3,4-oxadiazol-2-yl)pyrimidin-2-amine], the IC50 is 29 nM on human recombinant HDAC6 and over 10 µM at human recombinant HDAC1.
The like results for `FC(F)(F)c1nnc(-c2cnc(NC3(c4cccc(Cl)c4Cl)CCC3)nc2)o1` [Compound 1833, N-(1-(2,3-dichlorophenyl)cyclobutyl)-5-(5-(trifluoromethyl)-1,3,4-oxadiazol-2-yl)pyrimidin-2-amine] were, in that order, 750 nM and over 10 µM.
The like results for `Fc1ccc(C2(Nc3ncc(-c4nnc(C(F)F)o4)cn3)CC2)cc1` [Compound 1711, 5-(5-(difluoromethyl)-1,3,4-oxadiazol-2-yl)-N-(1-(4-fluorophenyl)cyclopropyl)pyrimidin-2-amine] were, in that order, 26 nM and over 10 µM.
Take `Fc1ccc(C2(Nc3ncc(-c4nnc(C(F)(F)F)o4)cn3)CC2)cc1` [Compound 1712, N-(1-(4-fluorophenyl)cyclopropyl)-5-(5-(trifluoromethyl)-1,3,4-oxadiazol-2-yl)pyrimidin-2-amine]: the values for the IC50 at human recombinant HDAC6 and on human recombinant HDAC1 were 100 nM and over 10 µM, respectively.
The like results for `Fc1ccc(C2(Nc3ncc(-c4nnc(C(F)F)o4)cn3)CCC2)cc1Cl` [Compound 1817, N-(1-(3-chloro-4-fluorophenyl)cyclobutyl)-5-(5-(difluoromethyl)-1,3,4-oxadiazol-2-yl)pyrimidin-2-amine] were, in that order, 78 nM and over 10 µM.
The like results for `FC(F)(F)c1cccc(C2(Nc3ncc(-c4nnc(C(F)(F)F)o4)cn3)CC2)c1` [Compound 1741, 5-(5-(trifluoromethyl)-1,3,4-oxadiazol-2-yl)-N-(1-(3-(trifluoromethyl)phenyl)cyclopropyl)pyrimidin-2-amine] were, in that order, 450 nM and over 10 µM.
The like results for `Oc1cccc(C2(Nc3ncc(-c4nnc(C(F)F)o4)cn3)CCC2)c1` [Compound 1761, 3-(1-((5-(5-(difluoromethyl)-1,3,4-oxadiazol-2-yl)pyrimidin-2-yl)amino)cyclobutyl)phenol] were, in that order, 25 nM and over 10 µM.
Take `CC(C)N1CCC(c2ccc(C3(Nc4ncc(-c5nnc(C(F)F)o5)cn4)CCC3)cc2)CC1` [Compound 2037, 5-(5-(difluoromethyl)-1,3,4-oxadiazol-2-yl)-N-(1-(4-(1-isopropylpiperidin-4-yl)phenyl)cyclobutyl)pyrimidin-2-amine]: the IC50 was 397 nM at human recombinant HDAC6 and over 10 µM at human recombinant HDAC1.
